Like-named read-outs stand apart in the source and are kept apart here. Marks after values point to notes of the source that are not given here.
Experiments:
[1] = molecular target: TEM-2 (Escherichia coli, UniProt P62593, Q37K); experiment: Competitive assay with nitrocefin (RSAI); assay type: biochemical, E. coli 1725E
[2] = test system: HMS-1; experiment: Competitive assay with nitrocefin (RSAI); assay type: biochemical, E. coli 1946
[3] = molecular target: T1, Chromosomal, constitutive beta-lactamase enzyme (Enterobacter cloacae, UniProt P05364); experiment: Competitive assay with nitrocefin (RSAI); assay type: biochemical, E. cloacae
T1 construct: Normally, therefore, the beta-lactamase has to be extracted from the cells for the purpose of the present invention; endogenous in cells

[4] = test system: PSE-3; experiment: Competitive assay with nitrocefin (RSAI); assay type: biochemical, Ps.aerug. 1920E
[5] = molecular target: T2, Chromosomal, induced beta-lactamase enzyme (Pseudomonas aeruginosa, UniProt P24735); experiment: Competitive assay with nitrocefin (RSAI); assay type: biochemical, Ps.aerug. 1937E + ampicillin
T2 construct: Normally, therefore, the beta-lactamase has to be extracted from the cells for the purpose of the present invention; endogenous in cells; host or cells: Pseudomonas aeruginosa 1937E grown with ampicillin

[6] = test system: K10317; experiment: Competitive assay with nitrocefin (RSAI); assay type: biochemical, K.aerog. 10317
[7] = test system: K1073; experiment: Competitive assay with nitrocefin (RSAI); assay type: biochemical, Klebsiella 1073
[8] = test system: K17; experiment: Competitive assay with nitrocefin (RSAI); assay type: biochemical, Klebsiella 17
[9] = test system: "unknown" (unidentified) beta-lactamase; experiment: Competitive assay with nitrocefin (RSAI) on an unidentified beta-lactamase; details: extract by the method of Example 6, assay as in Example 1; * = showed irreversible inhibition
[10] = molecular target: OXA-3 (Pseudomonas aeruginosa, UniProt Q51429); experiment: Competitive assay with nitrocefin (RSAI); assay type: biochemical, E. coli R57B; parameters: Normally, therefore, the beta-lactamase has to be extracted from the cells for the purpose of the present invention; endogenous in cells
[11] = molecular target: PSE-1 (Pseudomonas aeruginosa, UniProt Q03170); experiment: Competitive assay with nitrocefin (RSAI); assay type: biochemical, Ps.aerug. 1937E; parameters: Normally, therefore, the beta-lactamase has to be extracted from the cells for the purpose of the present invention; endogenous in cells
[12] = molecular target: PSE-2 (Pseudomonas aeruginosa, UniProt P14489); experiment: Competitive assay with nitrocefin (RSAI); assay type: biochemical, Ps.aerug. 1973E; parameters: Normally, therefore, the beta-lactamase has to be extracted from the cells for the purpose of the present invention; endogenous in cells
[13] = molecular target: PSE-4 (Pseudomonas aeruginosa, UniProt P16897); experiment: Competitive assay with nitrocefin (RSAI); assay type: biochemical, Ps.aerug. 1559E; parameters: Normally, therefore, the beta-lactamase has to be extracted from the cells for the purpose of the present invention; endogenous in cells
[14] = molecular target: SHV-1 (Escherichia coli, UniProt P0AD63); experiment: Competitive assay with nitrocefin (RSAI); assay type: biochemical, E. coli 2008E; parameters: the beta-lactamase has to be extracted from the cells for the purpose of the present invention; made in house; host or cells: E. coli 2008E (crude cell extract)
[15] = molecular target: TEM-1 (Escherichia coli, UniProt P62593); experiment: Competitive assay with nitrocefin (RSAI); assay type: biochemical, E. coli 2136E; parameters: the beta-lactamase has to be extracted from the cells for the purpose of the present invention; made in house; host or cells: E. coli 2136E (plasmid-bearing strain; crude cell extract)
[16] = molecular target: T3, OXA-1 (Escherichia coli, UniProt P13661); experiment: Competitive assay with nitrocefin (RSAI); assay type: biochemical, E. coli 1527E; parameters: the beta-lactamase has to be extracted from the cells for the purpose of the present invention; made in house; host or cells: E. coli 1527E according to the earlier reading (crude cell extract)
[17] = molecular target: T4, Chromosomal, hyper-induced beta-lactamase enzyme (Escherichia coli, UniProt P00811); experiment: Competitive assay with nitrocefin (RSAI); assay type: biochemical, E. coli SNU35; parameters: Normally, therefore, the beta-lactamase has to be extracted from the cells for the purpose of the present invention; endogenous in cells; host or cells: E. coli SNU 35 (artificially produced strain)
[18] = molecular target: T5, OXA-2 (Escherichia coli, UniProt P0A1V9); experiment: Competitive assay with nitrocefin (RSAI); assay type: biochemical, E. coli R46; parameters: the beta-lactamase has to be extracted from the cells for the purpose of the present invention; made in house; host or cells: E. coli carrying R46 according to the earlier reading (crude cell extract)
[19] = test system: O=C(Cc1cccs1)N[C@@H]1C(=O)N2C(C(=O)O)=C(C=Cc3ccc([N+](=O)[O-])cc3[N+](=O)[O-])CS[C@H]12; experiment: purified protein, by the assay type; details: pH 7.0; 37.0 °C
[20] = test system: O=C(Cc1cccs1)N[C@@H]1C(=O)N2C(C(=O)O)=C(C=Cc3ccc([N+](=O)[O-])cc3[N+](=O)[O-])CS[C@H]12; experiment: purified protein, by the assay type; details: pH 7.0; 37.0 °C; remark: listed apart in the source
[21] = molecular target: T5, OXA-2; experiment: Hydrolysis of nitrocefin by enzyme (Michaelis constant); details: read-out: Km (Nitrocefin); enzyme No. 6
[22] = molecular target: T4, Chromosomal, hyper-induced beta-lactamase enzyme; experiment: as above; details: read-out: Km (Nitrocefin); enzyme No. 9
[23] = molecular target: T3, OXA-1; experiment: Cleavage of chromogenic substrate by enzyme (PADAC example); details: PADAC monitored at 570 nm; same enzyme preparation for nitrocefin

CO[C@@]1(NC(=O)C(C(=O)O)c2ccc(O)cc2)C(=O)N2C(C(=O)O)=C(CSc3nnnn3C)CO[C@@H]21 (some centres unmarked) [Moxalactam] was tested, and the RSAI [1] was 60*, the RSAI [2] was 0.3* and the RSAI [3] was 0.0001*. The RSAI ([3]; listed as moxalactam) was 0.0001, the RSAI [4] was 7 and the RSAI [5] was 0.006*. For the same compound, the RSAI ([5]; listed as moxalactam) was 0.006, the RSAI [6] was 60* and the RSAI [7] was over 80. The RSAI [8] was 3.5, the RSAI [9] was 0.0001 and the RSAI [10] was 1*. For the same compound, the RSAI [11] was 3.5, the RSAI [12] was 8.2 and the RSAI [13] was 4.3. For the same compound, the RSAI [14] was 280, the RSAI [15] was 40* and the RSAI [16] was 4*. The RSAI [17] was 0.002*, the RSAI ([17]; listed as moxalactam) was 0.002 and the RSAI [18] was 3*.
Work on (Escherichia coli) yielded a Km [19] of 16 µg/mL and a Km [20] of 9 µg/mL.
In the case of O=C(Cc1cccs1)N[C@@H]1C(=O)N2C(C(=O)O)=C(C=Cc3ccc([N+](=O)[O-])cc3[N+](=O)[O-])CS[C@H]12 [Nitrocefin, 3-(2,4-dinitrostyryl)-(6R,7R)-7-(2-thienylacetamido)ceph-3-em-4-carboxylic acid], the Km [21] was under 9.68 µM, the Km [22] was 34.8 µM and the “cleavage of chromogenic substrate by the enzyme” value [23] was “cleaved”.

Reference: patent publication EP0059645A1, “Method and kit for identification of beta-lactamases” (NATIONAL RESEARCH DEVELOPMENT CORPORATION, priority 1981, dated 1982)
